A short description of series [1]: UV-vis absorption spectrum. The format is physicochemical. As to conditions: Table 2. As to the method: All the melting points were measured with a Yanagimoto-Micro apparatus and were not corrected. Nuclear magnetic resonance (^1H-NMR) spectrum of a protein was recorded by using a spectrometer, JEOL-FX-200 or JEOL-GSX-400. Chemical shifts were indicated as δ values (ppm) using tetramethylsilane as the internal standard. The fast atom bombardment mass spectrometric analysis (FAB) or the electron ionization mass spectrometric analysis (El) was performed by using a JEOL-SX-102A apparatus. […] The UV-vis spectrum was measured by using a Beckmann's 650-40 spectrometer. The fluorescence spectrum was recorded with a Hitachi's 650-40 luminescence spectrometer. […]
A DMF solution (250 μl ) of compound (6) of the present invention obtained in Example 1 (3.7 μmol/ml) was added to a 0.1 M phosphate buffer solution (pH 7.5, 1 ml) of BSA (2 mg). […] Then, the aqueous layer containing the labeled protein and the ethyl acetate layer were subjected to UV-vis and fluorescence analyses.
As a result, the ratios of the fluorescent substance in the aqueous layer and the ethyl acetate layer were 44% in BSA and 69% in IgG. The protein concentration in the labeled protein was measured by using a protein assay kit (Bio-Rad, CA), and the total ICG concentration in the labeled protein was determined from the absorbance (789 nm) of the DMF solution and the ε value of the ICD derivative. […]

Series [2] in a line: Fluorescence spectrum (excitation/emission). Format: physicochemical. The procedure:
All the melting points were measured with a Yanagimoto-Micro apparatus and were not corrected. Nuclear magnetic resonance (^1H-NMR) spectrum of a protein was recorded by using a spectrometer, JEOL-FX-200 or JEOL-GSX-400. Chemical shifts were indicated as δ values (ppm) using tetramethylsilane as the internal standard. The fast atom bombardment mass spectrometric analysis (FAB) or the electron ionization mass spectrometric analysis (El) was performed by using a JEOL-SX-102A apparatus. […] The UV-vis spectrum was measured by using a Beckmann's 650-40 spectrometer. The fluorescence spectrum was recorded with a Hitachi's 650-40 luminescence spectrometer. The column chromatography was performed by using Merck's Silica Gel 60 (70-230 mesh). The compound numbers in Examples correspond to those in the aforementioned scheme.
A DMF solution (250 μl ) of compound (6) of the present invention obtained in Example 1 (3.7 μmol/ml) was added to a 0.1 M phosphate buffer solution (pH 7.5, 1 ml) of BSA (2 mg). The reaction mixture was allowed to stand for 30 minutes and subjected to Sephadex LH-20 column chromatography (1.5 cm×50 cm), and then eluted with a 0.1 M phosphate buffer solution (pH 7.5) to obtain a fraction of ICG-labeled protein. For IgG (2 mg), the labeling reaction with a DMF solution (250 μl) of ICG-ATT (6) (3.7 μmol/ml) was carried out in a similar manner to the above by using 0.1 M carbonate buffer (pH 9.5) instead of 0.1 M phosphate buffer (pH 7.5). The 0.1 M phosphate or the carbonate buffer solution (1 ml), containing the ICG-labeled protein (BSA or IgG) obtained by the Sephadex LH-20 column chromatography, was added to ethyl acetate (1 ml), and the mixture was vigorously stirred for 30 minutes to remove fluorescent compounds which bound to the protein through noncovalent bond. Then, the aqueous layer containing the labeled protein and the ethyl acetate layer were subjected to UV-vis and fluorescence analyses.
As a result, the ratios of the fluorescent substance in the aqueous layer and the ethyl acetate layer were 44% in BSA and 69% in IgG. The protein concentration in the labeled protein was measured by using a protein assay kit (Bio-Rad, CA), and the total ICG concentration in the labeled protein was determined from the absorbance (789 nm) of the DMF solution and the ε value of the ICD derivative. The ratios of ICG versus protein (ICG/protein) in each ICG-labeled protein were 21.5 (BSA) and 23.6 (IgG). […] From the foregoing results, it is readily understood that the compounds of the present invention are useful as near infrared fluorescent labeling agents for proteins and oligopeptides.

As to `CCN1C(=CC=CC=CC=CC2=[N+](CCCCCC(=O)N3CCSC3=S)c3ccc4ccccc4c3C2(C)C)C(C)(C)c2c1ccc1ccccc21.[Cl-]` [ICG-ATT (6), 2-[7-(1,3-Dihydro-1,1-dimethyl-3-ethylbenz[e]indolin-2-ylidene)-1,3,5-heptatrienyl]-1,1-dimethyl-3-[[6-[(1,3-thiazolidine-2-thion)-1-yl]-6-oxo]hexyl]-1H-benz[e]indolium Chloride], the “UV-vis abs (λmax)” value in series [1] is on record as 789 nm. Moreover, in series [2] (DMF), the λ em is listed as 830 nm and the λ ex turned out to be 765 nm. Further, in series [2] (Table 2), the “fluorescent λem” value was found to be 830 nm and the “fluorescent λex” value turned out to be 765 nm.

Values taken from patent US6403625B1, “Fluorescent labeling reagents” (Daiichi Pure Chemicals Co., Ltd., priority 1998, dated 2002).
